Results published in patent publication US8148392B2, “2-indolyl imidazo [4,5-d] phenanthroline derivatives and their use in the treatment of cancer” (Lorus Therapeutics Inc., priority 2005, dated 2012).
Entries after “also recorded” stand apart in the source; their conditions may differ.

Columns and labels:
[1] = system: Sp1; test: Sp1 binding to Cyclin D1 promoter, ChIP, HT-29; assay type: cell-based, human; settings: HT-29, ChIP
Procedure: Based on overlapping transcription factor binding sites on Cyclin D1 gene promoter region (FIG. 33A), increased binding of a negative regulator KLF4 may replace the binding of a positive regulator Sp1. In vivo KLF4 and Sp1 binding to Cyclin D1 promoter was shown by chromatin immuno-precipitation assay (ChIP) (FIG. 33B).
Chromatin immunoprecipitation (ChIP) was performed as follows. Cell lysates from HT-29 cells (5.5×10^5 cells in three 15 cm-culture plates in each experimental group) were prepared at the end of the indicated experiments, and ChIP assays were performed using anti-KLF4 and anti-Sp1 antibodies (Santa Cruz Biotechnology Inc.) and ChIP-ITTM kit (Active Motif, Carlsbad, Calif.) by following the manufacturer's instruction. The primers encompassing-231 to -92 region of Cyclin D1 promoter; 5′ primer (5′-CGGACTACAGGGGCAA-3′) [SEQ ID NO:1] and 3′ primer (5′-GCTCCAGGACTTTGCA-3′) [SEQ ID NO:2] were synthesized at Invitrogen.

[2] = system: KLF5; test: KLF5 gene expression in HT-29 cells, RT-PCR; assay type: cell-based, human; settings: HT-29, 1 μM, after 4 hr
Procedure: HT-29 cells were treated with 1 μM compound 3 for indicated time (FIG. 41B). Total RNA was extracted and gene expression level was determined by RT-PCR.

[3] = system: 12 human tumour cell lines; test: Hollow fiber assay; assay type: in vivo, athymic mice; settings: for net cell kill: cell lines with net cell kill
Excerpt: For example, the in vivo activity of candidate compounds can also be tested using the Hollow Fiber Assay (Hollingshead, M., et al., (1995) Life Sciences 57:131-141; and Decker et al., Eur. J. of Cancer 40: 821-826 (2004)). In this assay, cells growing in hollow fibers (polyvinylidine fluoride, PVDF) are implanted in various body compartments of mice. A standard panel of 12 tumour cell lines can be used for the hollow fiber screening of candidate compounds which have shown activity in vitro. These cell lines may include NCI-H23, NCI-H522, MDA-MB-231, MDA-MB-435, SW-620, COLO 205, LOX-IMVI, UACC-62, OVCAR-3, OVCAR-5, U251 and SF-295. In addition, alternate lines such as those described in the above in vitro section can be used for specialized testing of compounds. The cell lines are cultivated according to standard protocols, and fibers are prepared by flushing cells into the PVDF fibers and sealing them at 2 cm intervals. The samples generated from these seals are placed into tissue culture medium and incubated at 37° C. in 5% CO2 for 24 to 48 hours prior to implantation. A total of 3 different tumour lines are prepared for each experiment so that each mouse receives 3 intraperitoneal implants (1 of each tumour line) and 3 subcutaneous implants (1 of each tumour line). On the day of implantation, samples of each tumour cell line preparation are quantitated for viable cell mass by, for example, a stable endpoint MTT assay, so that the time zero cell mass is known. Mice are treated with experimental agents starting on day 3 or 4 following fiber implantation and continuing daily for 4 days. Each agent is administered by intraperitoneal injection at 2 dose levels. The fibers are collected from the mice on the day following the fourth compound treatment and subjected to the stable endpoint MTT assay. The optical density of each sample is determined spectrophotometrically at 540 nm and the mean of each treatment group is calculated. The percent net growth for each cell line in each treatment group is calculated and compared to the percent net growth in the vehicle treated controls. A 50% or greater reduction in percent net growth in the treated samples compared to the vehicle control samples is considered a positive result. Each positive result is given a score of […] and all of the scores are totaled for a given compound. The maximum possible score for an agent is 96 (12 cell lines×2 sites×2 dose levels×2 [score]).
A candidate compound that is screened initially in the hollow fiber assay may subsequently be tested in a xenograft model if it has a combined ip+sc score of 20 or greater, a sc score of 8 or greater, or produces cell kill of any cell line at either dose level evaluated. This scoring system has been validated by DCTDC statisticians in CTEP to represent a level of detection expected to score current “standard” agents as active.
The in vivo efficacy of compounds according to Formula I was tested by determining the efficacy of compound 3 in the hollow fiber assay. This assay is described in Decker et al., Eur. J. of Cancer 40: 821-826 (2004), and was carried out by implanting 12 human tumour cell lines (Breast; MDA-MB-231, MDA-MB-435. Glioma; U251, SF-295. Ovarian; OVCAR-3, OVCAR-5. Colon; COLO-205, SW-620. Melanoma; LOX-IMVI, UACC-62 and Lung; NCI-H23, NCI-H522) into athymic mice as follows. Cell cultures were cultivated in RPMI-1640 containing 10% FBS and 2 mM glutamine. […]

[4] = system: CCRF-CEM leukemia cells; test: Apoptosis, annexin V-FITC/PI flow cytometry, CCRF-CEM; assay type: cell-based, human; settings: 0.1-1 μM, 24 hours
Procedure: The ability of compound 3 to alter the population of cells at different stages of apoptosis was measured by determining the effect of compound 3 on populations of CCRF-CEM leukemia cells treated with vehicle (DMSO), 0.1 μM, 0.25 μM, 0.5 μM, or 1 μM of compound 3 for 24 hours. CCRF-CEM cells were seeded and treated with the above concentrations of compound 3 or 0.1% DMSO vehicle control as described in Example 23. After 24 hours, the cells were collected by centrifugation and re-suspended in growth media to approximately 1×10^6 cells/ml. Then the cells were stained for annexin V binding and PI staining using the annexin V-FITC apoptosis detection kit (Oncogene™ research products, Mass.) and following the manufacturer's RAPID Annexin V Binding protocol. The fluorescence of stained cells was analyzed using FACScan flow cytometer and the Cell Quest program (BD Biosciences, San Jose, Calif.). Data were evaluated using Modfit software (Verity software House, Topsham, Me.) to generate quadrant statistics. Cells stained with Annexin V only are considered to be in early apoptosis, whereas cells stained with both Annexin V and propidium iodide are considered to be in late apoptosis. Cells stained with propidium iodide only are non-viable, whereas no staining indicates viable cells. MOLT-4 leukemia cells were treated similarly.

Compound: Cc1[nH]c2ccccc2c1-c1nc2c3cccnc3c3ncccc3c2[nH]1 [Compound 3]
- Sp1 binding to Cyclin D1 promoter [1]: decreased Sp1 binding
- KLF5 gene expression [2]: decrease in KLF5 gene expression
- ip score ([3]; 2 dosages, 4 days treatment): 22
- sc score ([3]; 2 dosages, 4 days treatment): 10
- net cell kill [3]: positive cell killing; also recorded: one or more
- net cell kill ([3]; listed as compound 3): positive cell kill
- total score ([3]; ip + sc, maximum of 96): 32
- induction of apoptosis [4]: increase in the number of early and late apoptotic cells
